The numbers were not newly measured in US20040024041A1, “Dermal therapeutic system containing non-steroidal antiphlogistics with selective cox-2 inhibition” (priority 2000, published 2004), which cites them from elsewhere.

For data set [1] the following is noted: patients receiving rofecoxib therapy vs patients receiving other non-steroidal anti-inflammatory drugs as comparison substance.

Molecules are shown by their SMILES.

As to `CS(=O)(=O)c1ccc(C2=C(c3ccccc3)C(=O)OC2)cc1` [rofecoxib, 3-phenyl-4-[4-methylsulfonylphenyl]-2-(5H)furanone], in data set [1], the “perforations, ulcers and bleeds in the upper gastrointestinal tract” value is “significantly fewer”. Also, the “percentage of patients with endoscopically detectable gastroduodenal ulcers” value (after 12 weeks of treatment, rofecoxib 25 or 50 mg/day vs placebo) is reported as “comparable percentage”. Further, the “cumulative incidence of gastroduodenal ulcers” value (over 12 and 24 weeks, respectively, vs ibuprofen 2 400 mg/day) is “significantly less”.
